According to patent publication US20150119245A1, “Method for Producing Shelf Stable Hypochlorous Acid Solutions” (priority 2013, published 2015):

Assays:
[1] = Window cleaner streak test, sprayed on glass and dried without wiping; details: test solution as used in streak test
[2] = Available chlorine present as hypochlorous acid as a function of pH (FIG. 2); format: physicochemical
Excerpt: The concentration of hypochlorous acid solutions (HOCl) are usually reported as free available chlorine (FAC) in parts per million (ppm). Hypochlorous acid (HOCl) is in equilibrium with hypochlorite ion (^−OCl) and Cl2 and the extent of the equilibrium is controlled by the pH of the solution, as shown in FIG. 2. Therefore, both FAC and pH need to be known to understand the amount of chlorine present as hypochlorous acid.
Thus at pH 5, a 100 ppm FAC solution will have 100 ppm chlorine present as HOCl.

FAC present as hypochlorous acid ([2]; pH 7.5) | available chlorine present as hypochlorous acid ([2]; pH of 3) | available chlorine present as HOCl ([2]; pH range of 4 to 5.6) | Structure (SMILES) | pH [1]
– | – | – | [Na+].[OH-] [NaOH, sodium hydroxide] | 12.2
50% | about 90% | approximately 100% | OCl [hypochlorous acid] | –
